Legend:
E. coli 35218R [1] = test: microbe, parasite or virus in culture; conditions: Escherichia coli
E. coli ATCC 35218 = format: cell-based, Escherichia coli; conditions: 30-μg cefoxitin disc
E. coli 35218R [2] = format: cell-based, Escherichia coli; conditions: 30-μg cefoxitin disc
[3] = mouse, in vivo; cited from earlier work
[4] = mouse, in vivo

Compound	MIC (E. coli 35218R [1]) [mg/L]	further results
C[C@H]1[C@H](NC(=O)/C(=N\OC(C)(C)C(=O)O)c2csc(N)n2)C(=O)N1S(=O)(=O)O [Aztreonam]	≤ 1	–
CO/N=C(\C(=O)N[C@@H]1C(=O)N2C(C(=O)[O-])=C(C[N+]3(C)CCCC3)CS[C@H]12)c1csc(N)n1 [Cefepime]	≤ 1	–
CO[C@@]1(NC(=O)Cc2cccs2)C(=O)N2C(C(=O)O)=C(COC(N)=O)CS[C@@H]21 [Cefoxitin]	≤ 4	inhibition zone (mean ± SD) (E. coli ATCC 35218): 27.2 ± 0.1 mm; inhibition zone (mean ± SD) (E. coli 35218R [2]): 27.9 ± 0.1 mm
CC(C)(O/N=C(\C(=O)N[C@@H]1C(=O)N2C(C(=O)[O-])=C(C[n+]3ccccc3)CS[C@H]12)c1csc(N)n1)C(=O)O [Ceftazidime]	≤ 1	–
CO/N=C(\C(=O)N[C@@H]1C(=O)N2C(C(=O)O)=C(CSc3nc(=O)c(=O)[nH]n3C)CS[C@H]12)c1csc(N)n1 [Ceftriaxone]	≤ 1	–
C[C@@H](O)[C@H]1C(=O)N2C(C(=O)O)=C(S[C@@H]3CN[C@H](C(=O)Nc4cccc(C(=O)O)c4)C3)[C@H](C)[C@H]12 [Ertapenem]	≤ 0.5	–
C[C@@H](O)[C@H]1C(=O)N2C(C(=O)O)=C(SCCN=CN)C[C@H]12 [Imipenem]	≤ 1	–
C[C@@H](O)[C@H]1C(=O)N2C(C(=O)O)=C(S[C@@H]3CN[C@H](C(=O)N(C)C)C3)[C@H](C)[C@H]12 [Meropenem]	≤ 0.25	–
CN[C@H](CC(C)C)C(=O)N[C@H]1C(=O)N[C@@H](CC(N)=O)C(=O)N[C@H]2C(=O)N[C@H]3C(=O)N[C@H](C(=O)N[C@H](C(=O)O)c4cc(O)cc(O)c4-c4cc3ccc4O)[C@H](O)c3ccc(c(Cl)c3)Oc3cc2cc(c3O[C@@H]2O[C@H](CO)[C@@H](O)[C@H](O)[C@H]2O[C@H]2C[C@](C)(N)[C@H](O)[C@H](C)O2)Oc2ccc(cc2Cl)[C@H]1O [vancomycin]	–	elimination half-life [3]: ~30 min
piperacillin-tazobactam [Farmalogica]	–	bioequivalence test versus innovator [4]: passed
piperacillin-tazobactam [Procaps]	–	bioequivalence test versus innovator [4]: passed

Source: article PMC4871539 (PLoS ONE, 2016)
